The values below come from patent US20260234140A1, “PYRIDOPYRIMIDINE DERIVATIVE AND USE THEREOF” (SUNSHINE LAKE PHARMA CO., LTD., priority 2023, published 2026).

The nature of series [1]: Pharmacokinetics experiment in SD rats. Type of series: in vivo. The conditions noted are these: male SD rats; for AUC(0-t) / Cmax / half-life / clearance / Vd: rat, plasma; for Vd: read-out: Vss. The method, then: Experiment 2: Pharmacokinetics Experiment
1) Preparation of the compound solutions of Example 1 and Example 17: The test compound was prepared into a solution using 10% dimethyl sulfoxide, 10% Kolliphor HS15 and 80% physiological saline; Preparation of the compound solution of Example 11: The compound to be tested is prepared into a solution with 5% dimethyl sulfoxide, 5% Kolliphor HS15 and 90% saline for oral administration or intravenous injection.
2) Male SD rats weighing 250-345 g were randomly divided into two groups. One group was intravenously injected with the test compound at a dose of 1.0 mg/kg, and the other group was orally administered with the test compound at a dose of 5.0 mg/kg. Blood was collected at 0.083, 0.25, 0.5, 1, 2, 5, 7 and 24 hours after administration.
3) A standard curve of an appropriate range was established according to the sample concentration, and the concentration of the test compound in the plasma sample was determined in the MRM mode using an AB SCIEX Q TRAP 4000 LC-MS/MS. The pharmacokinetic parameters were calculated using the non-compartmental model method using WinNonLin 6.3 software.

In another series the test system is PD1/PD-L1 pathway. Put plainly: PD1/PD-L1 Blockade Bioassay, inhibition of the PD1/PD-L1 pathway at the cellular level (luciferase reporter, PD-1 Jukat T cells co-cultured with PD-L1 aAPC/CHO-K1 cells). It is filed as cell-based. As to conditions: T-cell; for EC50: PD-1 Jukat T cells + PD-L1 aAPC/CHO-K1 cells, 6 h co-culture, ONE-Glo luciferase readout; for Emax: maximum % Activity relative to atezolizumab (set to 100%). The procedure:
Experiment 1: Detecting the Inhibitory Activity of Compounds on the PD1/PD-L1 Pathway at the Cellular Level Using the PD1/PD-L1 Blockade Bioassay Method
PD-1 Jukat T cells were revived and cultured with 1640 medium containing 100 μg/mL Hygromycin B, […] Puromycin, 10% FBS and 1% dual antibody; PD-L1 aAPC/CHO-K1 cells were revived and cultured with F12K medium containing 100 μg/mL Hygromycin B, 200 μg/mL G418, 10% FBS and 1% dual antibody.
The revived cells need to be passaged 2-3 times. When the cells enter the exponential growth phase with good growth status, the PD-L1 aAPC/CHO-K1 was digested with trypsin, and the cells were resuspended in F12K containing 5% FBS and adjusted to a density of 5×10^5 cells/mL. 20 μl/well were plated in a 384-well plate (10,000 cells/well) and incubated in an incubator overnight for 16-20 h.
a Preparation of compound stock solution: Dissolve the compound to be tested in DMSO to prepare a 20 mM stock solution.
b Compound gradient dilution: dilute the compound in 1640 medium containing 5% FBS without antibiotics or phenol red, and make 3-fold gradient dilutions to prepare 10 concentration gradients (2×).
c Adding drugs: Take out the cell culture plate, discard the supernatant, add 20 μl/well of the prepared compound, and incubate in the incubator for 1.5 h.
PD-1 Jukat T cells were collected, washed once with PBS, and resuspended in 1640 medium containing 5% FBS without antibiotics or phenol red. The density was adjusted to 1×10^6 cells/mL. 20 μl PD-1 Jukat T cells (20,000 cells/well) were added to each well and incubated in the incubator for 6 h.
ONE-Glo™ Luciferase Assay reagent was thawed to room temperature in advance and then added to a 384-well plate at 40 µl/well. Incubate in the dark for 15 minutes and read the […] signal on a plate reader.
[formula] • Among them, % Activity: % Activity • RLU: Resulting Luminescence unit • RLUvehicle: Average RLU value of negative control wells on each plate • RLUpositive: Average RLU value of positive control wells on each plate • Vehicle control: DMSO (0.1%) corresponding to the test value was used as negative control (its % Activity was 0%); • Positive control: The highest detection value at the atezolizumab administration concentration was used as the positive control (its % Activity was 100%). • (2) EC50 value calculation method: The EC50 value was obtained by the nonlinear fitting formula of Graph Pad Prism 8.0 software. The calculation formula is as follows:
Y=Bottom+(Top−Bottom)/(1+10^((Log EC50−X)×HillSlope)) • X: log of activator concentration (logarithm of compound concentration); Y: % Activity • (3) Emax definition: The maximum % Activity value corresponding to the maximum activation value of the compound relative to atezolizumab (the activation value is set to 100%).
In general terms: A reporter such as luciferase makes a cellular process visible.

Consider `[2H]C([2H])([2H])N(Cc1ncc(-c2cccc(-c3cccc(Nc4nc(C(F)F)nc5cc(CN6CC[C@@H](O)C6)cnc45)c3C)c2Cl)cc1OC)C[C@H]1CC[C@H](C(=O)O)CC1` [Example 38, (1r,4r)-4-((((5-(2-chloro-3′-((2-(difluoromethyl)-7-(((R)-3-hydroxypyrrolidin-1-yl)methyl)pyrido[3,2-d]pyrimidin-4-yl)amino)-2′-methyl-[1,1′-biphenyl]-3-yl)-3-methoxypyridin-2-yl)methyl)(methyl-d3)amino)methyl)cyclohexane-1-carboxylic acid], for which, in series [1] (ig (oral), 5 mg/kg), the F is on record as 57.8%; the AUC(0-t) (in general, the area under the concentration-time curve up to a stated or last time point) stood at 25900 ng·h/mL; the Cmax (commonly the peak of the concentration-time curve) is 1850 ng/mL; the half-life (commonly the time needed for the level to fall by half in the phase considered) was 6.1 h. Also, in series [1] (iv, 1 mg/kg), the area under the curve AUC(0-t) amounted to 8890 ng·h/mL, the Cmax turned out to be 621 ng/mL, the clearance (usually the volume of plasma or blood freed of the substance per unit of time) stood at 1.7 mL/min/kg and the half-life is 6.6 h. For the same compound, in series [1] (iv, 1 mg/kg), the Vd came out at 0.91 L/kg.
As for `COc1nc(-c2cccc(-c3cccc(Nc4nc(C(F)F)nc5cc(CN6CC[C@@H](O)C6)cnc45)c3C)c2Cl)ccc1CN1CCC(C(=O)O)CC1` [Example 40, (R)-1-((6-(2-chloro-3′-((2-(difluoromethyl)-7-((3-hydroxypyrrolidin-1-yl)methyl)pyrido[3,2-d]pyrimidin-4-yl)amino)-2′-methyl-[1,1′-biphenyl]-3-yl)-2-methoxypyridin-3-yl)methyl)piperidine-4-carboxylic acid], in the series with PD1/PD-L1 pathway, the concentration giving a half-maximal response (EC50) (commonly the midpoint of the concentration-response curve) turned out to be 57.7 nM and the maximal response (Emax) (commonly the size of the effect at its maximum, as opposed to the concentration needed) turned out to be 121%. Also, in series [1] (ig (oral), 5 mg/kg), the F came to 23%, the area under the curve AUC(0-t) turned out to be 15100 ng·h/mL, the peak level (Cmax) was 1260 ng/mL and the half-life was 4.1 h. In series [1] (iv, 1 mg/kg), the AUC(0-t) turned out to be 12900 ng·h/mL, the concentration peaked (Cmax) at 1870 ng/mL, the clearance turned out to be 1.3 mL/min/kg and the half-life is 4.5 h. In addition, the Vd in series [1] (iv, 1 mg/kg) was 0.43 L/kg.
For `COc1nc(-c2cccc(-c3cccc(Nc4nc(C(F)F)nc5cc(CN6CC[C@@H](O)C6)cnc45)c3C)c2Cl)ccc1CN(C)C[C@H]1CC[C@H](C(=O)O)CC1` [Example 17, (1r,4r)-4-((((6-(2-chloro-3′-((2-(difluoromethyl)-7-(((R)-3-hydroxypyrrolidin-1-yl)methyl)pyrido[3,2-d]pyrimidin-4-yl)amino)-2′-methyl-[1,1′-biphenyl]-3-yl)-2-methoxypyridin-3-yl)methyl)(methyl)amino)methyl)cyclohexane-1-carboxylic acid], in the series on PD1/PD-L1 pathway, the EC50 came out at 109 nM and the Emax amounted to 94.1%. In series [1] (ig (oral), 5 mg/kg), this compound registered an F of 55%, an area under the curve AUC(0-t) of 27000 ng·h/mL and a maximum concentration (Cmax) of 1980 ng/mL. In series [1] (iv, 1 mg/kg), this compound gave an area under the curve AUC(0-t) of 9760 ng·h/mL, a Cmax of 675 ng/mL, a clearance of 1.6 mL/min/kg and a half-life of 7.5 h. In addition, the Vd in series [1] (iv, 1 mg/kg) worked out at 0.95 L/kg.
As to `COc1nc(-c2cccc(-c3cccc(Nc4nc(C(F)F)nc5cc(CN6CC[C@@H](O)C6)cnc45)c3C)c2Cl)ccc1CN(C)[C@H]1CC[C@H](C(=O)O)CC1` [Example 1, (1r,4r)-4-(((6-(2-chloro-3′-((2-(difluoromethyl)-7-(((R)-3-hydroxypyrrolidin-1-yl)methyl)pyrido[3,2-d]pyrimidin-4-yl)amino)-2′-methyl-[1,1′-biphenyl]-3-yl)-2-methoxypyridin-3-yl)methyl)(methyl)amino)cyclohexane-1-carboxylic acid], in the series on PD1/PD-L1 pathway, the half-maximal effective concentration (EC50) is 44 nM and the maximal effect (Emax) worked out at 98.2%. Further, in series [1] (ig (oral), 5 mg/kg), the F came out at 32%, the AUC(0-t) was found to be 12300 ng·h/mL, the peak concentration (Cmax) is 935 ng/mL and the half-life was 4.9 h. In series [1] (iv, 1 mg/kg), this compound had an exposure AUC(0-t) of 7710 ng·h/mL, a Cmax of 877 ng/mL, a clearance of 2.1 mL/min/kg and a half-life of 5.4 h. In addition, the Vd in series [1] (iv, 1 mg/kg) was determined as 0.82 L/kg.
